According to paper PMC6437697 (Journal of Medicinal Chemistry, 2019):

What was measured:
Assay in all cases: KINOMEscan
Type in all cases: binding
Details in all cases: read-out: % control activity remaining
[1] = target: T1, RIPK1 (Homo sapiens, UniProt Q13546)
T1 construct: purchased Eurofins DiscoverX KINOMEscan
T1 sequence (Q13546 1-671): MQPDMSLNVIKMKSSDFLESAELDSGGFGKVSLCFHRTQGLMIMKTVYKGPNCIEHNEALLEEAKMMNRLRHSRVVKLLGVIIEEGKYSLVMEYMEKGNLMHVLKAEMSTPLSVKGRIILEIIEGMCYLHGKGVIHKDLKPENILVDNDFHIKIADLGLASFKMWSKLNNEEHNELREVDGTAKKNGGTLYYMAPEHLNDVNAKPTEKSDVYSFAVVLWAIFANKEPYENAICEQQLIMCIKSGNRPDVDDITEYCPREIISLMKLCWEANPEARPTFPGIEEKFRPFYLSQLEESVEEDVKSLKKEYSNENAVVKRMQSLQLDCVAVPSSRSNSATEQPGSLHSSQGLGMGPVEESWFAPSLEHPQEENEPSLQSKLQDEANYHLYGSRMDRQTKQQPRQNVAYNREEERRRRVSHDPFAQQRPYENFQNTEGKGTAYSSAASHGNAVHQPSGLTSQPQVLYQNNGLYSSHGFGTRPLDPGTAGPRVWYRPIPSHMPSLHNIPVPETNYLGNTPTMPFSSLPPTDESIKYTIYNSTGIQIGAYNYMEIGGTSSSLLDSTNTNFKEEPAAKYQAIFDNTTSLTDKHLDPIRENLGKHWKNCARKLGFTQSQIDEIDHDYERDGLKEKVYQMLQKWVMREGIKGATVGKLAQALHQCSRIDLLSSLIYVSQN

[2] = target: T2, RSK1(Kin.Dom.1-N-terminal) (Homo sapiens, UniProt Q15418)
T2 construct: RSK1(Kin.Dom.1-N-terminal); purchased Eurofins DiscoverX KINOMEscan
T2 sequence (Q15418 62-321 limits assumed): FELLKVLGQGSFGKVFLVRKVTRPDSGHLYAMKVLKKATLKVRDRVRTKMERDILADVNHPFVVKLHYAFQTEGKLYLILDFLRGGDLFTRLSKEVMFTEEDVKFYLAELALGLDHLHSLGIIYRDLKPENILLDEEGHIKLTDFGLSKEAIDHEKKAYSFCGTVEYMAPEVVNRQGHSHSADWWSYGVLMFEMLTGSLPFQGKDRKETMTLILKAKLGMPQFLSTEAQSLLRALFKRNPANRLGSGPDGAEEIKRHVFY

[3] = target: T3, DYRK2 (Homo sapiens, UniProt Q92630)
T3 construct: purchased Eurofins DiscoverX KINOMEscan
T3 sequence (Q92630 1-601): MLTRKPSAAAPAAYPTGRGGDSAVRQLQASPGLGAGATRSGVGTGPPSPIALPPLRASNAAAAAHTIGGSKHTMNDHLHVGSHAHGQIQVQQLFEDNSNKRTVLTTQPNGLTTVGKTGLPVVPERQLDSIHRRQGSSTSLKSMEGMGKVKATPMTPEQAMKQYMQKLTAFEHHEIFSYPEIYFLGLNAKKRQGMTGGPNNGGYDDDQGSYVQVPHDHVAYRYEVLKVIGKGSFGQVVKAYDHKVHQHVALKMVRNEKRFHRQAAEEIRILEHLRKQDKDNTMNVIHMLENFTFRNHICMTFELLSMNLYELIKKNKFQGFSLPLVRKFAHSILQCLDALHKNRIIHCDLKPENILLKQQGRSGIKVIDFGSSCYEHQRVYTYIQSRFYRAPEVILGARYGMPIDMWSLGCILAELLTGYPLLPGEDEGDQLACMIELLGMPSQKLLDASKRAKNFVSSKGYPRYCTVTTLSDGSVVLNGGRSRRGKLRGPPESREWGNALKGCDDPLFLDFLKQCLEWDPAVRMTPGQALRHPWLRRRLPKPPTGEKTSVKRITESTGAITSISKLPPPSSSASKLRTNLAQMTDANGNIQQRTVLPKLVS

[4] = target: T4, DYRK1B (Homo sapiens, UniProt Q9Y463)
T4 construct: purchased Eurofins DiscoverX KINOMEscan
T4 sequence (Q9Y463 whole entry): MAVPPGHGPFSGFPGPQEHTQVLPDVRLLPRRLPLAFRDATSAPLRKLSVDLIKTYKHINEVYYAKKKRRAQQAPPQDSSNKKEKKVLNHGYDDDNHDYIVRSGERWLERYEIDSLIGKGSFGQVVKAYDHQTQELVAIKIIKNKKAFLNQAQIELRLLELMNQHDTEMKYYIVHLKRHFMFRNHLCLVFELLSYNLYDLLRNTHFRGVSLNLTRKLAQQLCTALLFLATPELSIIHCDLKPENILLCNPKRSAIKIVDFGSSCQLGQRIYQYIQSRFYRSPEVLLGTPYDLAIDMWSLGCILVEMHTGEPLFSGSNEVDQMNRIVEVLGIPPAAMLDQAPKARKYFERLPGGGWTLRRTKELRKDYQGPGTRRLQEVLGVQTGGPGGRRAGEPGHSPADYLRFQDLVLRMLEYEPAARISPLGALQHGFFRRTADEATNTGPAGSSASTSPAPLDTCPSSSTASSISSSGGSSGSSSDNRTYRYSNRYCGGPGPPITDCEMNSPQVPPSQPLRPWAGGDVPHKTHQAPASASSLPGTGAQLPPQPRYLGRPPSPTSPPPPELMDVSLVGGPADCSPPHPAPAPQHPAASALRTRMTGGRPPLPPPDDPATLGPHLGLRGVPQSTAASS

[5] = target: T5, MEK1 (Homo sapiens, UniProt Q02750)
T5 construct: purchased Eurofins DiscoverX KINOMEscan
T5 sequence (Q02750 whole entry): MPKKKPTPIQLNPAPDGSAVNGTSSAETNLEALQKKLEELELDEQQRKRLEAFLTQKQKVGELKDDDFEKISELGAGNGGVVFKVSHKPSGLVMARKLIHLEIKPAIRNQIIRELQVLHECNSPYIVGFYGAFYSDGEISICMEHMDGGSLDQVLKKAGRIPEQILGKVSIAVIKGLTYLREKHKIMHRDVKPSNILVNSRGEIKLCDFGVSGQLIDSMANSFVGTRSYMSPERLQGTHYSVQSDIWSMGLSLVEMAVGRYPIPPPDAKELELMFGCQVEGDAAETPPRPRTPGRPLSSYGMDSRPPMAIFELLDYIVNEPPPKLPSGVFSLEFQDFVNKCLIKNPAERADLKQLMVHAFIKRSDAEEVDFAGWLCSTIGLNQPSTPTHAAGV

[6] = target: T6, FLT3(D835H) (Homo sapiens, UniProt P36888, D835H)
T6 construct: purchased Eurofins DiscoverX KINOMEscan
T6 sequence (P36888 27-993 D835H): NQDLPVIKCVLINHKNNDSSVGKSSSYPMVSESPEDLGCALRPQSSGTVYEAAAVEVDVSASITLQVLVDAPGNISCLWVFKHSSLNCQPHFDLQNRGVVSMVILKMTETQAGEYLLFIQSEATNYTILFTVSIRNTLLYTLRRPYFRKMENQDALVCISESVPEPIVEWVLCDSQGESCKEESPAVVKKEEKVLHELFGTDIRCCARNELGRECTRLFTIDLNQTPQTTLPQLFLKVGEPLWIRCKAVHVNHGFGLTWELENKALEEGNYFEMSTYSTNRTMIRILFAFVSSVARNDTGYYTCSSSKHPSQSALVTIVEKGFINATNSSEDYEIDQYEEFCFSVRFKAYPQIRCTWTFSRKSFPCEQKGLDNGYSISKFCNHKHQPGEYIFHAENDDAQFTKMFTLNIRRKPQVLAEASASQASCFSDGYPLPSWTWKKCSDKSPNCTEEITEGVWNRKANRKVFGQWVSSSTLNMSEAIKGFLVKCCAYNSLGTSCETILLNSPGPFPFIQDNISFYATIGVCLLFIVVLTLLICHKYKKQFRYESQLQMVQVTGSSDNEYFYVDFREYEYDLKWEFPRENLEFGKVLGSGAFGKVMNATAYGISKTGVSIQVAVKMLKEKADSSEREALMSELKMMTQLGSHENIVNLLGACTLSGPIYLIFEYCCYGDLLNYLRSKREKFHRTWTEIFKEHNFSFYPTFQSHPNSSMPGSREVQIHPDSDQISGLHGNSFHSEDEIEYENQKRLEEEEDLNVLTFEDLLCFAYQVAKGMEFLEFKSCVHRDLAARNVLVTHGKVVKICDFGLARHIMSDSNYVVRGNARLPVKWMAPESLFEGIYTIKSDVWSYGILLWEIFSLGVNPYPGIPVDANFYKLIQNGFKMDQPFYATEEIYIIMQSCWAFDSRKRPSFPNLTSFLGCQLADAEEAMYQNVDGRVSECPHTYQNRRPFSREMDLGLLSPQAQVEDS

## Clc1cc(NCC2CC2)c2ncc(-c3ccc4[nH]ncc4c3)n2n1 [compound 2, 6-Chloro-N-(cyclopropylmethyl)-3-(1H-indazol-5-yl)imidazo[1,2-b]pyridazin-8-amine]
[1]
  remaining binding at 1 µM: 91%
[2]
  remaining binding at 1 µM: 72%
[3]
  remaining binding at 1 µM: 28%
[4]
  remaining binding at 1 µM: 1%
[5]
  remaining binding at 1 µM: 95%
[6]
  remaining binding at 1 µM: 13%

## O=C(CN1CCOCC1)N[C@H]1CC[C@H](Nc2cc(Cl)nn3c(-c4ccc5[nH]ncc5c4)cnc23)CC1 [compound 26]
[1]
  remaining binding at 1 µM: 74%
[2]
  remaining binding at 1 µM: 54%
[3]
  remaining binding at 1 µM: 8%
[4]
  remaining binding at 1 µM: 0.85%
[5]
  remaining binding at 1 µM: 93%
[6]
  remaining binding at 1 µM: 5.5%

## CN1CCC(CNc2cc(Cl)nn3c(-c4cc5nc(Nc6ccccc6)[nH]c5cc4F)cnc23)CC1 [compound 31, 6-Chloro-3-(6-fluoro-2-(phenylamino)-1H-benzo[d]imidazol-5-yl)-N-((1-methylpiperidin-4-yl)methyl)imidazo[1,2-b]pyridazin-8-amine]
[1]
  remaining binding at 1 µM: 94%
[2]
  remaining binding at 1 µM: 100%
[3]
  remaining binding at 1 µM: 99%
[4]
  remaining binding at 1 µM: 63%
[5]
  remaining binding at 1 µM: 80%
[6]
  remaining binding at 1 µM: 90%
